# From patent US11945798B2, “Substituted aminopyridine compounds as EGFR inhibitors” (YUHAN CORPORATION, priority 2021, dated 2024)
# Like-named read-outs stand apart in the source and are kept apart here.
# Experiments:
# EGFR L858R/C797S = EGFR L858R/C797S (Homo sapiens, UniProt P00533, C797S/L858R); assay: Biochemical EGFR kinase assay (Lance Ultra TR-FRET), L858R/C797S
# Procedure, shortened: (§1)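 Enzyme reactions lasted 1 hour at room temperature with test compounds between 0.003 and 10 μM, followed by 10 mM EDTA quench.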
# EGFR L858R/T790M/C797S = EGFR L858R/T790M/C797S (Homo sapiens, UniProt P00533, C797S/L858R/T790M); assay: Biochemical EGFR kinase assay (Lance Ultra TR-FRET), L858R/T790M/C797S
# Procedure, shortened: as §1
# EGFR del19/C797S = EGFR del19/C797S (Homo sapiens, UniProt P00533, C797S/DEL746-750); assay: Biochemical EGFR kinase assay (Lance Ultra TR-FRET), del19/C797S
# Procedure, shortened: as §1
# EGFR del19/T790M/C797S = EGFR del19/T790M/C797S (Homo sapiens, UniProt P00533, C797S/DEL746-750/T790M); assay: Biochemical EGFR kinase assay (Lance Ultra TR-FRET), del19/T790M/C797S
# Procedure, shortened: as §1
# EGFR wildtype (WT) = EGFR wildtype (WT) (Homo sapiens, UniProt P00533); assay: Biochemical EGFR kinase assay (Lance Ultra TR-FRET), wildtype
# Procedure, shortened: as §1
# [1] = Km ATP, read-out: IC50 L858R/C797S (nM) Km ATP
# [2] = Km ATP, read-out: IC50 L858R/T790M/C797S (nM) Km ATP
# [3] = Km ATP, read-out: IC50 del19/C797S (nM) Km ATP
# [4] = Km ATP, read-out: IC50 del19/T790M/C797S (nM) Km ATP
# [5] = Km ATP, read-out: IC50 WT (nM) Km ATP
# [6] = IC50 L858R/C797S (nM) 100 μM ATP, 100 μM ATP
# [7] = IC50 L858R/T790M/C797S (nM) 100 μM ATP, 100 μM ATP
# [8] = IC50 del19/C797S (nM) 100 μM ATP, 100 μM ATP
# [9] = IC50 del19/T790M/C797S (nM) 100 μM ATP, 100 μM ATP
# [10] = IC50 WT (nM) 100 μM ATP, 100 μM ATP
# Sequence of EGFR wildtype (WT) (P00533 25-1210): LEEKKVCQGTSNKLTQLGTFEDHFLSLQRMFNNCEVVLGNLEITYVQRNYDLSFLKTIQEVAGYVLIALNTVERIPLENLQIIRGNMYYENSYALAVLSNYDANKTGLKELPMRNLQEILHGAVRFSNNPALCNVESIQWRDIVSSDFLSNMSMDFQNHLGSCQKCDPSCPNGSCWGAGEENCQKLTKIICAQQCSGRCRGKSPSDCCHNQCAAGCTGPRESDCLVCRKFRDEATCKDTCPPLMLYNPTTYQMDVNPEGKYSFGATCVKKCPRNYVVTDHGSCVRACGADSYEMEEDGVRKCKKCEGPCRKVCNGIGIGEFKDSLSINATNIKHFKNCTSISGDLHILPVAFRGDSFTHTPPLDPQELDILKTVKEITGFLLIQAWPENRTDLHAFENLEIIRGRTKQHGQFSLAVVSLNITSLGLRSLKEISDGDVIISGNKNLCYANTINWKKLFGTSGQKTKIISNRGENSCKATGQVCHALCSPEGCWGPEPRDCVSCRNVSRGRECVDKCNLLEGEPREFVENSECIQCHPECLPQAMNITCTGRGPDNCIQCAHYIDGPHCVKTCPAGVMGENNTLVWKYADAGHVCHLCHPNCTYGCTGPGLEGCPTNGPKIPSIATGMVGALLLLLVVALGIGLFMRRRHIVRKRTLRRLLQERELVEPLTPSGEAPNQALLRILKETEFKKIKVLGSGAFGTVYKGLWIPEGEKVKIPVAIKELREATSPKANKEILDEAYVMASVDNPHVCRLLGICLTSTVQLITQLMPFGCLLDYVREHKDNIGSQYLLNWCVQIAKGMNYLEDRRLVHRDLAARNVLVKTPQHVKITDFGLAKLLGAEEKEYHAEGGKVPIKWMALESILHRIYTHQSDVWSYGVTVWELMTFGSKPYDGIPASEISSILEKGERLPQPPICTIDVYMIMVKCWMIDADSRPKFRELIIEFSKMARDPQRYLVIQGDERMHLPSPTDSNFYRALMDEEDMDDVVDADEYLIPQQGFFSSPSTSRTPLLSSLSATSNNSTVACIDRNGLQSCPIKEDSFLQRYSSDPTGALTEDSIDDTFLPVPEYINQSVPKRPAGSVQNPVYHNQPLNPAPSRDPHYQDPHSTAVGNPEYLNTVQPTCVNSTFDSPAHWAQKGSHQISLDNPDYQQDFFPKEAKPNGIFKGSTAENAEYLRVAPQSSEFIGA
# Sequence of EGFR del19/C797S (P00533 with tags, fused parts or gaps DEL746-750/C797S): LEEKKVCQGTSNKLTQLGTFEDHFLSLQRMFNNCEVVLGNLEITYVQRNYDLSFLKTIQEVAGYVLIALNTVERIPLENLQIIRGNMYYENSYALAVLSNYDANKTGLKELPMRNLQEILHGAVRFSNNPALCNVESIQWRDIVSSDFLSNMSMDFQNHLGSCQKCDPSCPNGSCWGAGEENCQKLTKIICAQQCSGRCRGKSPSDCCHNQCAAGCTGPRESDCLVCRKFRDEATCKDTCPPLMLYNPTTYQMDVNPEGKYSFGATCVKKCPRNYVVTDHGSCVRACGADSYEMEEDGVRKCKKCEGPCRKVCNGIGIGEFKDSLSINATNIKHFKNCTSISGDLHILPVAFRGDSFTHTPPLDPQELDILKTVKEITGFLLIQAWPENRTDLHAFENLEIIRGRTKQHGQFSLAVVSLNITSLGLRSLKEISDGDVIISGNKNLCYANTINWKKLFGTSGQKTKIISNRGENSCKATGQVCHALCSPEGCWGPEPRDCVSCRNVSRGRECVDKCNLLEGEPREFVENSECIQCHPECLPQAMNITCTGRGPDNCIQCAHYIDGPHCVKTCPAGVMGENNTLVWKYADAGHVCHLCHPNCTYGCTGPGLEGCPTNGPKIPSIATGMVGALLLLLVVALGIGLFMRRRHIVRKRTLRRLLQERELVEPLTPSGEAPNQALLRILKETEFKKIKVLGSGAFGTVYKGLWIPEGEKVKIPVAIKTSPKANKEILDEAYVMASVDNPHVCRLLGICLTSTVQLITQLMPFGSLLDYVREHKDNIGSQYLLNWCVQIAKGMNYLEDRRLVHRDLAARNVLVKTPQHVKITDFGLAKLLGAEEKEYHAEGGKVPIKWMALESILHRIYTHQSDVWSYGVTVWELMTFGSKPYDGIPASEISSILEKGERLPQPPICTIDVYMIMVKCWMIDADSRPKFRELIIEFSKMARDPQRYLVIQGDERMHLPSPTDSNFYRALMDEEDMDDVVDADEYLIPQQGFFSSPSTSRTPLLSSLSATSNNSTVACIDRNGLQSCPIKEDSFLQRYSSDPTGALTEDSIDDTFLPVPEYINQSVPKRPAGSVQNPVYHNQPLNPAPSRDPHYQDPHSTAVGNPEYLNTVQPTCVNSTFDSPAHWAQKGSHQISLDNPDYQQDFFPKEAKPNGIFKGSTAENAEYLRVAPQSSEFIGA
# Sequence of EGFR L858R/T790M/C797S (P00533 25-1210 T790M/C797S/L858R): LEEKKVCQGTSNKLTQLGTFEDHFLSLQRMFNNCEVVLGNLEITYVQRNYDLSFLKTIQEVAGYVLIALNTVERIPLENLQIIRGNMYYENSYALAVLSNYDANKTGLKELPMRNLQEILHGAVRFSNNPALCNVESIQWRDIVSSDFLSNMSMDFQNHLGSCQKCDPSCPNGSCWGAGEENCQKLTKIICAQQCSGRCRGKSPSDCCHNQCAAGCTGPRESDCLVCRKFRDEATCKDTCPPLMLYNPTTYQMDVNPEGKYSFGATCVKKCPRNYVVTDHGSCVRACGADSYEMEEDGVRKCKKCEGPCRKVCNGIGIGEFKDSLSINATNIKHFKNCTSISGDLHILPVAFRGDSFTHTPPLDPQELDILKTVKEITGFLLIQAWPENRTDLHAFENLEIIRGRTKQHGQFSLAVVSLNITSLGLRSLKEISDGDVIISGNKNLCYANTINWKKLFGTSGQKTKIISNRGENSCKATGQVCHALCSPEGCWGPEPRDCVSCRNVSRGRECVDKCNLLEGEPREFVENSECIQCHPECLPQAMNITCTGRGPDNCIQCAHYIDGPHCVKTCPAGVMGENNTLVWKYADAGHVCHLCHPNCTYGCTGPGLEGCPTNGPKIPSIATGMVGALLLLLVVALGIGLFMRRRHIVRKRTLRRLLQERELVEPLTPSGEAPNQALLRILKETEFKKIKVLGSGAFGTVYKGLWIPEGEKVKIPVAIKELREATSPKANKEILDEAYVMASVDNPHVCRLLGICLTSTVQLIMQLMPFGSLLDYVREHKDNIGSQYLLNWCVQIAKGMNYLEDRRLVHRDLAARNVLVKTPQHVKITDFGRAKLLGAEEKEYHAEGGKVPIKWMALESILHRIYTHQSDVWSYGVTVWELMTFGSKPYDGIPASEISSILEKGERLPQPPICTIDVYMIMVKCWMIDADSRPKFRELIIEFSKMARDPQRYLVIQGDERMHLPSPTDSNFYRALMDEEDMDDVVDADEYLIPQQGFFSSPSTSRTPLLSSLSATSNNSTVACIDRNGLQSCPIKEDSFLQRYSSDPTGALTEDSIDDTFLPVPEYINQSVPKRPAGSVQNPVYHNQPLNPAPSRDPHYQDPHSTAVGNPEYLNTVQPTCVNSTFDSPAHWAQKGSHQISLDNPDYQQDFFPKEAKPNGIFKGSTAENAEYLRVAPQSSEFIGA
# Sequence of EGFR del19/T790M/C797S (P00533 with tags, fused parts or gaps DEL746-750/T790M/C797S): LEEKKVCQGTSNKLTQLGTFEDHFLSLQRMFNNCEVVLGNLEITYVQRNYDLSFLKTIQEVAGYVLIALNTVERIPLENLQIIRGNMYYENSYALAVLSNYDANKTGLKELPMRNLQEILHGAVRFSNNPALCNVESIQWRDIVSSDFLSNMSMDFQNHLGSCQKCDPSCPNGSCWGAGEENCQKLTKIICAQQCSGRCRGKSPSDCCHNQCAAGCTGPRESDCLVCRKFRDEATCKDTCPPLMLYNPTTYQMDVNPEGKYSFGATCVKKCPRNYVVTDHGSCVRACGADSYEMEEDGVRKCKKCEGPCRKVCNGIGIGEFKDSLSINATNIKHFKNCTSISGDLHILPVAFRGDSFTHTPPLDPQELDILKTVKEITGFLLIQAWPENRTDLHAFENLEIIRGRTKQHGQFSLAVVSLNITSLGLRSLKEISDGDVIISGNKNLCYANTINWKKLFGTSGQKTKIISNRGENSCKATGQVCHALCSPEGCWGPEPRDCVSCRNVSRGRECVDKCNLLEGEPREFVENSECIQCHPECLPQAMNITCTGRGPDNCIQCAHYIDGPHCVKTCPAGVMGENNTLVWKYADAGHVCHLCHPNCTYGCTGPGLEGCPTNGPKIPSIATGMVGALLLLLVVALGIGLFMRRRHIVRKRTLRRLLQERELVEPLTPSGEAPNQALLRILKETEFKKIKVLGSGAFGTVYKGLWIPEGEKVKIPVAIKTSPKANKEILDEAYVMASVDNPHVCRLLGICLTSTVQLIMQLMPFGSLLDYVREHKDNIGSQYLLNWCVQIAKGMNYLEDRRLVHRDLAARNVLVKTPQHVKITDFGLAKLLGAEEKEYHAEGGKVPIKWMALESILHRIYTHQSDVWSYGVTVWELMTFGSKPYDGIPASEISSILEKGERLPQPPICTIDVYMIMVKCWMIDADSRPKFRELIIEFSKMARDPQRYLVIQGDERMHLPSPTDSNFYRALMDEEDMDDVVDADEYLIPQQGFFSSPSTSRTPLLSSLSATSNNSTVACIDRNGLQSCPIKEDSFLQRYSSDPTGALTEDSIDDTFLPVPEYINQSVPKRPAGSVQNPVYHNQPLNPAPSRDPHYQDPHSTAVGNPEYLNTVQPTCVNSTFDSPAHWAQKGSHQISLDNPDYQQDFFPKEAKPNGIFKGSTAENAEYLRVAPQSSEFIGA
SMILES,IC50 (EGFR L858R/C797S; [1]),IC50 (EGFR L858R/T790M/C797S; [2]),IC50 (EGFR del19/C797S; [3]),IC50 (EGFR del19/T790M/C797S; [4]),IC50 (EGFR wildtype (WT); [5]),IC50 (EGFR L858R/C797S; [6]),IC50 (EGFR L858R/T790M/C797S; [7]),IC50 (EGFR del19/C797S; [8]),IC50 (EGFR del19/T790M/C797S; [9]),IC50 (EGFR wildtype (WT); [10])
"CC(C)Nc1cc(Nc2ccnc(-c3cnn(S(=O)(=O)C4CC4)c3)n2)ncc1C(=O)NCCF [Example 74, 6-((2-(1-(Cyclopropylsulfonyl)-1H-pyrazol-4-yl)pyrimidin-4-yl)amino)-N-(2-fluoroethyl)-4-(isopropylamino)nicotinamide]",,,94.6 nM,6.3 nM,393 nM,430 nM,5.7 nM,182 nM,4.2 nM,> 10000 nM
"O=C(NCCF)c1cnc(Nc2ccnc(-c3cnn(S(=O)(=O)C4CC4)c3)n2)cc1N[C@H]1CC[C@@H](NCCF)CC1 [Example 77, 6-((2-(1-(Cyclopropylsulfonyl)-1H-pyrazol-4-yl)pyrimidin-4-yl)amino)-N-(2-fluoroethyl)-4-(((1s,4s)-4-((2-fluoroethyl)amino)cyclohexyl)amino)nicotinamide]",9 nM,0.1 nM,5.6 nM,0.2 nM,57.4 nM,145 nM,1.6 nM,19.3 nM,0.9 nM,> 10000 nM
"O=C(N[C@H]1CC[C@H](O)CC1)c1cnc(Nc2ccnc(-c3cnn(S(=O)(=O)C4CC4)c3)n2)cc1N[C@H]1CC[C@@H](NCCF)CC1 [Example 80, 6-((2-(1-(Cyclopropylsulfonyl)-1H-pyrazol-4-yl)pyrimidin-4-yl)amino)-4-(((1s,4s)-4-((2-fluoroethyl)amino)cyclohexyl)amino)-N-((1r,4r)-4-hydroxycyclohexyl)nicotinamide]",,,,,,170 nM,2.4 nM,72.8 nM,0.8 nM,> 10000 nM
"O=C(c1cnc(Nc2ccnc(-c3cnn(S(=O)(=O)C4CC4)c3)n2)cc1N[C@H]1CC[C@](O)(CO)CC1)C1CC1 [Example 86, Cyclopropyl(6-((2-(1-(cyclopropylsulfonyl)-1H-pyrazol-4-yl)pyrimidin-4-yl)amino)-4-(((1s,4s)-4-hydroxy-(4-hydroxymethyl)cyclohexyl)amino)pyridin-3-yl)methanone]",4.3 nM,0.1 nM,1.9 nM,0.2 nM,47.6 nM,52.9 nM,0.3 nM,2.9 nM,0.2 nM,> 10000 nM
"O=C(c1cnc(Nc2ccnc(-c3cnn(S(=O)(=O)C4CC4)c3)n2)cc1NC1CCC(F)(CO)CC1)C1CC1 (stereo not drawn) [Example 87, Cyclopropyl(6-((2-(1-(cyclopropylsulfonyl)-1H-pyrazol-4-yl)pyrimidin-4-yl)amino)-4-((4-fluoro-4-(hydroxymethyl)cyclohexyl)amino)pyridin-3-yl)methanone]",,,,,,442 nM,4.3 nM,25.3 nM,2.2 nM,> 10000 nM
"CN[C@H]1CC[C@H](CNc2cc(Nc3ccnc(-c4cnn(S(=O)(=O)C5CC5)c4)n3)ncc2C(=O)C2CC2)CC1 [Example 88, Cyclopropyl(6-((2-(1-(cyclopropylsulfonyl)-1H-pyrazol-4-yl)pyrimidin-4-yl)amino)-4-((((1r,4r)-4-(methylamino)cyclohexyl)methyl)amino)pyridin-3-yl)methanone]",2.6 nM,0.1 nM,1.6 nM,0.1 nM,24.6 nM,30.7 nM,0.2 nM,2.6 nM,0.1 nM,3160 nM

# Results, then the compound that gave them:
IC50 (EGFR L858R/C797S; [1]),IC50 (EGFR L858R/T790M/C797S; [2]),IC50 (EGFR del19/C797S; [3]),IC50 (EGFR del19/T790M/C797S; [4]),IC50 (EGFR wildtype (WT); [5]),IC50 (EGFR L858R/C797S; [6]),IC50 (EGFR L858R/T790M/C797S; [7]),IC50 (EGFR del19/C797S; [8]),IC50 (EGFR del19/T790M/C797S; [9]),IC50 (EGFR wildtype (WT); [10]),SMILES
14.4 nM,0.4 nM,2.7 nM,0.3 nM,24.2 nM,,,,,,"O=C(c1cnc(Nc2ccnc(-c3cnn(S(=O)(=O)C4CC4)c3)n2)cc1NC[C@H]1CC[C@H](CNC2CCCC2)CC1)C1CC1 [Example 70, (4-((((1r,4r)-4-((Cyclopentylamino)methyl)cyclohexyl)methyl)amino)-6-((2-(1-(cyclopropylsulfonyl)-1H-pyrazol-4-yl)pyrimidin-4-yl)amino)pyridin-3-yl)(cyclopropyl)methanone]"
2.7 nM,0.1 nM,0.9 nM,0.2 nM,12 nM,28.9 nM,0.7 nM,2.3 nM,0.6 nM,> 10000 nM,"C[C@]1(O)CC[C@@H](Nc2cc(Nc3ccnc(-c4cnn(S(=O)(=O)C5CC5)c4)n3)ncc2C(=O)NCCF)CC1 [Example 76, 6-((2-(1-(Cyclopropylsulfonyl)-1H-pyrazol-4-yl)pyrimidin-4-yl)amino)-N-(2-fluoroethyl)-4-(((1s,4s)-4-hydroxy-4-methylcyclohexyl)amino)nicotinamide]"
,,,,,903 nM,21.5 nM,146 nM,9.4 nM,> 10000 nM,"CC1(CO)CCN(c2cc(Nc3ccnc(-c4cnn(S(=O)(=O)C5CC5)c4)n3)ncc2F)CC1 [Example 85, (1-(2-((2-(1-(Cyclopropylsulfonyl)-1H-pyrazol-4-yl)pyrimidin-4-yl)amino)-5-fluoropyridin-4-yl)-4-methylpiperidin-4-yl)methanol]"
0.7 nM,0.1 nM,0.5 nM,0.2 nM,4.9 nM,7.9 nM,0.1 nM,0.8 nM,0.2 nM,532 nM,"CNC[C@H]1CC[C@H](CNc2cc(Nc3ccnc(-c4cnn(S(=O)(=O)C5CC5)c4)n3)ncc2C(=O)C2CC2)CC1 [Example 89, Cyclopropyl(6-((2-(1-(cyclopropylsulfonyl)-1H-pyrazol-4-yl)pyrimidin-4-yl)amino)-4-((((1r,4r)-4-((methylamino)methyl)cyclohexyl)methyl)amino)pyridin-3-yl)methanone]"
